Read-outs that look alike come from different tables or passages of the source.
Key:
h2E2 anti-cocaine mAb [1] = test: Isothermal titration calorimetry; assay type: binding; settings: ITC, PBS, 20°C, mean ± SD of 4 experiments; for ΔG: calculated as ΔG = ΔH – TΔS; for Kd: reciprocal of fitted K
h2E2 anti-cocaine mAb [2] = settings: intrinsic fluorescence quenching, 20 °C, TBS buffer; cited from earlier work
mAb08 anti-cocaine mAb = settings: ITC; cited from earlier work
h2E2 Fc fragment = h2E2 Fc fragment (Homo sapiens, UniProt P01857); test: ITC of ligand binding to h2E2 Fc fragment; settings: PBS pH 7.4, 20°C
Sequence of h2E2 Fc fragment (P01857 1-330 isoform P01857-1): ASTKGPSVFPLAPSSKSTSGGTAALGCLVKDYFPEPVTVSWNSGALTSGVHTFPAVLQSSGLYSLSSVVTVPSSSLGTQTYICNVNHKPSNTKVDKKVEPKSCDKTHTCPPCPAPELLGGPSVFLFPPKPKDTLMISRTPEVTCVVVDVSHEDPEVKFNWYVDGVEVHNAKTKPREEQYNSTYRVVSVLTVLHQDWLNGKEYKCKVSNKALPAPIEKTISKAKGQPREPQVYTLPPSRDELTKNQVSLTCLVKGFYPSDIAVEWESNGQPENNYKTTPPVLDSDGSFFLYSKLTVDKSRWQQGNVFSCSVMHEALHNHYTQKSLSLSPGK

| Compound | ΔG (h2E2 anti-cocaine mAb [1]) [kcal/mol] | K (association) (h2E2 anti-cocaine mAb [1]) [M⁻¹] | ΔH (h2E2 anti-cocaine mAb [1]) [kcal/mol] | ΔS (h2E2 anti-cocaine mAb [1]) [cal/mol/deg] | ΔH (h2E2 anti-cocaine mAb [1]; listed as benzoylecgonine) | Kd (h2E2 anti-cocaine mAb [1]) [nM] | Kd (h2E2 anti-cocaine mAb [2]) [nM] | ΔH (h2E2 anti-cocaine mAb [1]; listed as cocaine) | Kd (h2E2 anti-cocaine mAb [1]; listed as cocaine) [nM] | Kd (mAb08 anti-cocaine mAb) [nM] | binding to the Fc fragment (h2E2 Fc fragment) |
| --- | --- | --- | --- | --- | --- | --- | --- | --- | --- | --- | --- |
| CN1[C@H]2CC[C@@H]1[C@@H](C(=O)O)[C@@H](OC(=O)c1ccccc1)C2 [Benzoylecgonine, benzoylecgonine] | -9.755 ± 0.106 | 1.88e+07 ± 3.26e+06 | -15.44 ± 0.833 | −19.4 ± 2.5 | ≈ -15,400 cal/mol | 54.4 ± 8.77 | ~20 |  |  |  |  |
| CCOC(=O)[C@@H]1C2CCC(C[C@@H]1OC(=O)c1ccccc1)N2C (stereo partly drawn) [Cocaethylene, cocaethylene] | -11.152 ± 0.302 | 2.31e+08 ± 1.3e+08 | -13.988 ± 0.279 | −9.67 ± 1.98 |  | 5.29 ± 2.4 | ~1 |  |  |  |  |
| COC(=O)[C@H]1[C@@H](OC(=O)c2ccccc2)C[C@@H]2CC[C@H]1N2C [Cocaine, cocaine] | -10.881 ± 0.187 | 1.33e+08 ± 4.54e+07 | -15.41 ± 0.368 | −15.4 ± 1.8 |  | 8.13 ± 2.37 | ~4 | ≈ -15,400 cal/mol | ~8 | 2.5 |  |
| COC(=O)[C@@H]1[C@H]2CC[C@@H](C[C@@H]1O)N2C [Ecgonine Methyl Ester, ecgonine methyl ester] | -6.381 ± 0.247 | 61375 ± 25024 | -2.336 ± 0.452 | 13.80 ± 2.33 |  | 18700 ± 8310 |  |  |  |  | no EME binding to the Fc fragment |
| COC(=O)[C@H]1[C@@H](OC(=O)c2ccccc2)C[C@@H]2CC[C@H]1N2 [Norcocaine, norcocaine] | -7.85 ± 0.027 | 704500 ± 36098 | -3.064 ± 0.15 | 16.3 ± 0.58 |  | 1420 ± 72 |  |  |  |  |  |

Reference: article PMC9516381 (Biochemistry and Biophysics Reports, 2022)
